Measured values taken from US20240041991A1, “STABLE LIQUID DISPERSINB COMPOSITIONS” (KANE BIOTECH INC., priority 2020, published 2024).
Where two headings read alike, the source gives them in different places. Marks after values point to notes of the source that are not given here.

System: DispersinB
Type: biochemical, Aggregatibacter actinomycetemcomitans
Details: for % enzymatic activity of DispersinB (Mean): polyol % as in label
Protocol: Samples from each formula was incubated at 3 different temperatures (42° C., 52° C. and 62° C.) for 3 hours. Following a 3 hour incubation, the samples were brought to room temperature for enzymatic activity assay.
Two-tailed paired T-test was performed by to compare each polyol containing treatment with the treatment devoid of polyol. Treatment with probability values (p) less than 5% (0.05) was considered significant.

## OC[C@@H](O)[C@@H](O[C@H]1O[C@H](CO)[C@@H](O)[C@H](O)[C@H]1O)[C@H](O)[C@@H](O)CO [Maltitol, 4-O-α-D-Glucopyranosyl-D-glucitol]
4° C., freshly made control without polyol = 100%, listed as 1% Maltitol
  % enzymatic activity of DispersinB (Mean): 102%
4° C., freshly made control without polyol = 100%, listed as 2.5% Maltitol
  % enzymatic activity of DispersinB (Mean): 99%
4° C., freshly made control without polyol = 100%, listed as 5% Maltitol
  % enzymatic activity of DispersinB (Mean): 95%
4° C., freshly made control without polyol = 100%, listed as 10% Maltitol
  % enzymatic activity of DispersinB (Mean): 138* %
4° C., freshly made control without polyol = 100%, listed as 15% Maltitol
  % enzymatic activity of DispersinB (Mean): 104%
4° C., freshly made control without polyol = 100%, listed as 20% Maltitol
  % enzymatic activity of DispersinB (Mean): 107%
4° C., freshly made control without polyol = 100%, listed as 25% Maltitol
  % enzymatic activity of DispersinB (Mean): 102%
42° C. for 3 hours, control without polyol = 100%, listed as 1% Maltitol
  % enzymatic activity of DispersinB (Mean): 106* %
42° C. for 3 hours, control without polyol = 100%, listed as 2.5% Maltitol
  % enzymatic activity of DispersinB (Mean): 110* %
42° C. for 3 hours, control without polyol = 100%, listed as 5% Maltitol
  % enzymatic activity of DispersinB (Mean): 107* %
42° C. for 3 hours, control without polyol = 100%, listed as 10% Maltitol
  % enzymatic activity of DispersinB (Mean): 143* %
42° C. for 3 hours, control without polyol = 100%, listed as 15% Maltitol
  % enzymatic activity of DispersinB (Mean): 110* %
42° C. for 3 hours, control without polyol = 100%, listed as 20% Maltitol
  % enzymatic activity of DispersinB (Mean): 116* %
42° C. for 3 hours, control without polyol = 100%, listed as 25% Maltitol
  % enzymatic activity of DispersinB (Mean): 129* %
52° C. for 3 hours, control without polyol = 100%, listed as 1% Maltitol
  % enzymatic activity of DispersinB (Mean): 17* %
52° C. for 3 hours, control without polyol = 100%, listed as 2.5% Maltitol
  % enzymatic activity of DispersinB (Mean): 24* %
52° C. for 3 hours, control without polyol = 100%, listed as 5% Maltitol
  % enzymatic activity of DispersinB (Mean): 37* %
52° C. for 3 hours, control without polyol = 100%, listed as 10% Maltitol
  % enzymatic activity of DispersinB (Mean): 111* %
52° C. for 3 hours, control without polyol = 100%, listed as 15% Maltitol
  % enzymatic activity of DispersinB (Mean): 102* %
52° C. for 3 hours, control without polyol = 100%, listed as 20% Maltitol
  % enzymatic activity of DispersinB (Mean): 113* %
52° C. for 3 hours, control without polyol = 100%, listed as 25% Maltitol
  % enzymatic activity of DispersinB (Mean): 120* %
62° C. for 3 hours, control without polyol = 100%, listed as 1% Maltitol
  % enzymatic activity of DispersinB (Mean): 0%
62° C. for 3 hours, control without polyol = 100%, listed as 2.5% Maltitol
  % enzymatic activity of DispersinB (Mean): 0%
62° C. for 3 hours, control without polyol = 100%, listed as 5% Maltitol
  % enzymatic activity of DispersinB (Mean): 0%
62° C. for 3 hours, control without polyol = 100%, listed as 10% Maltitol
  % enzymatic activity of DispersinB (Mean): 6* %
62° C. for 3 hours, control without polyol = 100%, listed as 15% Maltitol
  % enzymatic activity of DispersinB (Mean): 8* %
62° C. for 3 hours, control without polyol = 100%, listed as 20% Maltitol
  % enzymatic activity of DispersinB (Mean): 7* %
62° C. for 3 hours, control without polyol = 100%, listed as 25% Maltitol
  % enzymatic activity of DispersinB (Mean): 5* %

## OC[C@@H](O)[C@@H](O)[C@H](O)[C@H](O)CO [Mannitol]
4° C., freshly made control without polyol = 100%, listed as 1% Mannitol
  % enzymatic activity of DispersinB (Mean): 98%
4° C., freshly made control without polyol = 100%, listed as 2.5% Mannitol
  % enzymatic activity of DispersinB (Mean): 100%
4° C., freshly made control without polyol = 100%, listed as 5% Mannitol
  % enzymatic activity of DispersinB (Mean): 98%
4° C., freshly made control without polyol = 100%, listed as 10% Mannitol
  % enzymatic activity of DispersinB (Mean): 102%
4° C., freshly made control without polyol = 100%, listed as 12% Mannitol
  % enzymatic activity of DispersinB (Mean): 97%
42° C. for 3 hours, control without polyol = 100%, listed as 1% Mannitol
  % enzymatic activity of DispersinB (Mean): 77%
42° C. for 3 hours, control without polyol = 100%, listed as 2.5% Mannitol
  % enzymatic activity of DispersinB (Mean): 87* %
42° C. for 3 hours, control without polyol = 100%, listed as 5% Mannitol
  % enzymatic activity of DispersinB (Mean): 88* %
42° C. for 3 hours, control without polyol = 100%, listed as 10% Mannitol
  % enzymatic activity of DispersinB (Mean): 87* %
42° C. for 3 hours, control without polyol = 100%, listed as 12% Mannitol
  % enzymatic activity of DispersinB (Mean): 86* %
42° C., 52° C., and 62° C.
  temperature stabilizing effect on DispersinB at elevated temperatures: did not exhibit temperature stabilizing effects
52° C. for 3 hours, control without polyol = 100%, listed as 5% Mannitol
  % enzymatic activity of DispersinB (Mean): 1* %
52° C. for 3 hours, control without polyol = 100%, listed as 10% Mannitol
  % enzymatic activity of DispersinB (Mean): 14* %
52° C. for 3 hours, control without polyol = 100%, listed as 12% Mannitol
  % enzymatic activity of DispersinB (Mean): 53* %
